From BindingDB's records for doi:10.1124/dmd.112.048355 (Glaxosmithkline, 2013)

Biological target: Methionine aminopeptidase 2 (Homo sapiens) (UniProt P50579)
Experiment: Inhibition of MetAP2 activity in HUVEC assessed as inhibition of cell proliferation by MTT assay

Methionine aminopeptidase 2 (Homo sapiens), sequence (P50579 whole entry, looked up): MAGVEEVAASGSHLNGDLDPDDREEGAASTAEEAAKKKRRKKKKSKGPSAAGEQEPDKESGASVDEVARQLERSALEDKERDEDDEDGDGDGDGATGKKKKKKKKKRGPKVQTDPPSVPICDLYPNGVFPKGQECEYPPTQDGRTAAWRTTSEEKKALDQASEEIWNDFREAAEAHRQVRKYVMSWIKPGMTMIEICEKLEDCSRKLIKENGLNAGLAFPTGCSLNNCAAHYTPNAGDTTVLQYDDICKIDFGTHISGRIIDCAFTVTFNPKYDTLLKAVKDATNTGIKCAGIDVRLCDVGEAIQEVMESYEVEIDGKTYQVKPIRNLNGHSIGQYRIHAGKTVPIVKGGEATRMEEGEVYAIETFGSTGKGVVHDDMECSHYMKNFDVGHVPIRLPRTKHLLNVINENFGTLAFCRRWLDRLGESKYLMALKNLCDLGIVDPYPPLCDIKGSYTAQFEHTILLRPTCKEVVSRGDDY

| EC50 | SMILES |
| --- | --- |
| 1.3 nM | CO[C@@H]1[C@H](OC(=O)N[C@@H](C(N)=O)C(C)C)CC[C@]2(CO2)[C@H]1[C@@]1(C)O[C@@H]1C[C@H]1OC1(C)C |
| 8.8 nM | CO[C@@H]1[C@H](OC(=O)N[C@@H](C(N)=O)C(C)(C)O)CC[C@]2(CO2)[C@H]1[C@@]1(C)O[C@@H]1C[C@H]1OC1(C)C |
| 7.1 nM | CO[C@@H]1[C@H](OC(=O)N[C@@H](C(N)=O)C(C)C)CC[C@]2(CO2)[C@H]1[C@@]1(C)O[C@@H]1C/C=C(\C)CO |
| 6.5 nM | CO[C@@H]1[C@H](OC(=O)N[C@@H](C(N)=O)C(C)C)CC[C@]2(CO2)[C@H]1[C@@]1(C)O[C@@H]1C[C@@H]1OC1(C)C |
| 0.3 nM | CO[C@@H]1[C@H](OC(=O)N[C@@H](C(N)=O)C(C)(C)O)CC[C@]2(CO2)[C@H]1[C@@]1(C)O[C@@H]1CC=C(C)C |
| 12 nM | CO[C@@H]1[C@H](OC(=O)N[C@@H](C(N)=O)C(C)(C)O)CC[C@]2(CO2)[C@H]1[C@@]1(C)O[C@@H]1C[C@@H]1OC1(C)C |
| 0.095 nM | CO[C@@H]1[C@H](OC(=O)N[C@@H](C(N)=O)C(C)C)CC[C@]2(CO2)[C@H]1[C@@]1(C)O[C@@H]1CC=C(C)C |
